Several values for one entry are separate records, joined by “and”; a condition that tells them apart may be missing. Equal entries are not always repeated.
Assay: Solubility of the compound of formula (I-S) in toluene as a function of OPPh3 concentration
Format: physicochemical
Settings: 21° C.

Solubility (g/100 g toluene) (OPPH3 0.05 mol/L): 1.6 g/100 g toluene | Solubility (g/100 g toluene) (OPPH3 0.10 mol/L): 2.3 g/100 g toluene | Solubility (g/100 g toluene) (OPPH3 0.15 mol/L): 4.2 g/100 g toluene | Solubility (g/100 g toluene) (OPPH3 0.25 mol/L): 6.0 g/100 g toluene | Solubility (g/100 g toluene) (OPPH3 0.30 mol/L): 8.2 g/100 g toluene | Solubility (g/100 g toluene) (OPPH3 0.40 mol/L): 9.6 g/100 g toluene
SMILES: NS(=O)(=O)NC[C@H]1COc2cc(Cl)ccc2O1 [compound of formula (I-S), N-[[(2S)-6-chloro-2,3-dihydro-1,4-benzodioxin-2-yl]methyl]-sulfamide]
Solubility (g/100 g toluene) (OPPH3 0.20 mol/L): 5.9 g/100 g toluene and 5.0 g/100 g toluene | Solubility, trend with OPPh3 concentration (OPPh3 0.05-0.40 mol/L): increases with increased OPPh3 concentration
